Like-named read-outs stand apart in the source and are kept apart here.
Columns and labels:
[1] = system: Colorado potato beetle (Leptinotarsa decemlineata); experiment: Test L: soil systemic control of Colorado potato beetle, tomato; type: in vivo; details: 5 ppm, 5 mL to soil; leaf excised after 4 days; mortality after four days
Protocol: For evaluating soil systemic control of Colorado potato beetle (Leptinotarsa decemlineata), transplanted tomato plants were grown in 6-cm pots for 5 days until they were at the two true leaf stage.
Test compounds were dissolved in 0.25 mL of acetone and diluted with water provide solutions of 5 ppm. Five mL of the appropriate test solution was applied by pipette to the surface of the soil in each pot, followed by 5 mL of water, with eight plants for each compound/rate. The pots were covered and held at 25° C. with 16 hours of light per day. The plants were watered the next day and each day following as needed. After 4 days, one leaf from each plant was excised and placed into a well of a test tray as described in Test H. One 5-day old Colorado potato beetle (Leptinotarsa decemlineata) was placed in each well, the tray was covered and then the test units were held at 25° C. with 16 hours of light per day. Mortality was observed after four days.

[2] = system: tobacco budworm (Heliothis virescens); experiment: Test I: soil systemic control of tobacco budworm, cotton; type: in vivo; details: 10 ppm, 10 mL to pots weekly for four weeks
Protocol: For evaluating soil systemic control of tobacco budworm (Heliothis virescens), cotton plants were grown in sassafras soil in 15-cm pots in aluminum trays. When the plants reached square stage (bud formation on the plant) the plants were treated with the test compounds.
Test compounds were formulated in 0.25 mL of acetone and then diluted with water to provide solutions of 10 ppm. Ten mL of the treatment solutions was added to the pots weekly for four weeks, with four replicates of each treatment rate. One day after the second, third and fourth treatments, 35-50 first instar Heliothis virescens larvae were brushed on each plant with paintbrushes and placed on the terminal area, squares, and bolls. Five days after the last infestation with larvae the plants were rated for damage.

[3] = system: Heliothis virescens (tobacco budworm); type: in vivo; details: 10 mL of 300 ppm, 0 equals no feeding
Protocol: Seventy-eight cotton plants were grown in the greenhouse with natural lighting in Sassafras soil in six inch pots. When six true leaves were on the plant (approximately 36 cm tall) the soil was drenched with a solution of Compound 497, 500, 530, 531 or 543. Each of the 5 compounds was dissolved in 2 mL of acetone, and distilled water was added to make 300 ppm solutions of each of the compounds. The pots were divided into six groups (13 plants/treatment), and 10 mL of each solution was applied over the soil surface of each group with one group left untreated. The plants were arranged in the greenhouse in a randomized block design. Each treatment was divided into three groups for sampling at 24, 48, and 96 hours.
Leaves were taken from the base and terminal of the plants. The leaves from the third node and the terminal leaves greater than 15 cm^2 were sampled per plant. One clipped leaf from each plant was cut into four pieces and each piece was placed into an well with one second-instar larvae of Heliothis virescens (tobacco budworm). Larval mortality (% M) was recorded 96 hours after sampling. The percentage of leaf feeding (% FF) was also recorded. Consumption of the leaf in the well was reported as 0-100% (0 equals no feeding).

[4] = system: German cockroaches (Blatella germanica); experiment: Test Q: German cockroach bait test; type: in vivo; details: ten cockroaches per cage
Protocol: For evaluating german cockroach (Blatella germanica), Compound 531 was mixed with water, and then blended into a slurry with equal amounts (by weight) of peanut butter. Approximately 1 gram of bait was placed into each test cage. Ten German cockroaches (Blatella germanica) were then placed into each cage, and provided water via a saturated cotton ball. The cages were held indoors, with indirect sunlight, and temperatures ranging from 22 to 31° C. Four test replicates were set up per rate. Evaluations were conducted 1, 2, 3, 5, and 7 days after treatment (DAT) by counting and removing the killed roaches found in each cage.

[5] = system: southern fire ants (Solenopsis xyloni); experiment: Test R: fire ant bait test; type: in vivo; details: fifty ants per cage
Excerpt: For evaluating control of fire ant (Solenopsis xyloni), Compound 531 was mixed with water and then mixed into a slurry with equal amounts (by weight) of Niban granular bait with no active ingredient (supplied by Nisus Corp.). The baits were uniformly sprinkled onto the sand substrate in each test cage. Fifty field-collected southern fire ants (Solenopsis xyloni) were then placed into each cage and provided water via a saturated cotton ball. The cages were held indoors with indirect sunlight and temperatures ranging from 22 to 31° C. Four test replicates were set up per rate. Evaluations were conducted at 1, 3, 7, 10, and 14 days after treatment (DAT) by counting and removing the killed ants found in each cage.

[6] = system: thrips (Frankliniella sp.); experiment: Test N: control of thrips, sprayed cotton or soybean plants; type: in vivo; details: sprayed at 10 ppm; four days after application
Protocol: For evaluating control of thrips (Frankliniella sp.), samples of the test compounds were dissolved in 1 mL of acetone. This solution was then diluted to 100 mL total volume using an aqueous 500 ppm solution of Ortho X-77™ surfactant. Serial dilutions were made to obtain 50 mL of 10 ppm concentration.
The diluted solutions of the test compounds were sprayed to run-off on three-week-old cotton or soybean plants infested with thrips. The plants were placed on a rotating turntable sprayer (10 rpm). Test solutions were applied using a flat fan air-assisted nozzle (Spraying Systems 122440) at 10 psi (69 kPa). Sprayed and dried plants were incased in a plastic cylinder. At four days after application the total number of dead thrips was recorded.

[7] = base leaf sampled 24 h after drench
[8] = base leaf sampled 48 h after drench
[9] = base leaf sampled 96 h after drench
[10] = terminal leaf sampled 24 h after drench
[11] = terminal leaf sampled 48 h after drench
[12] = terminal leaf sampled 96 h after drench

CCn1nc(C(F)(F)F)cc1NC(=O)c1c(C)cccc1C(=O)NC(C)C
melting point: 200 to 204 °C

CNC(=O)c1cc(Cl)cc(C)c1NC(=O)c1cc(OCC(F)(F)F)nn1-c1ncccc1Cl
melting point: 215 to 217 °C

Cc1cccc(C(=O)NC(C)C)c1NC(=O)c1cc(C(F)(F)F)nn1-c1ncccc1C(F)(F)F
melting point: 233 to 235 °C

CNC(=O)c1cc(Cl)cc(C)c1NC(=O)c1cc(Cl)nn1-c1ncccc1Cl
melting point: 205 to 207 °C

Cc1cccc(C(=O)NC(C)C)c1NC(=O)c1cc(C(F)(F)F)nn1-c1ncccc1Cl [Compound 214]
mortality and feeding inhibition [1]: excellent levels of mortality and feeding inhibition
protection of squares and bolls [2]: excellent protection of squares and boils including no or minimal sepal damage

Cc1cccc(C(=O)NC(C)C)c1NC(=O)c1cc(Br)nn1-c1ncccc1Cl [Compound 283]
protection of squares and bolls [2]: excellent protection of squares and boils including no or minimal sepal damage

Cc1cc(Cl)cc(C(=O)NC(C)C)c1NC(=O)c1cc(C(F)(F)F)nn1-c1ncccc1Cl [Compound 497]
% FF (percentage of leaf feeding) [3, 7]: 80%
% FF (percentage of leaf feeding) [3, 8]: 100%
% FF (percentage of leaf feeding) [3, 9]: 20%
% FF (percentage of leaf feeding) [3, 10]: 50%
% FF (percentage of leaf feeding) [3, 11]: 50%
% FF (percentage of leaf feeding) [3, 12]: 10%

CNC(=O)c1cc(Cl)cc(C)c1NC(=O)c1cc(C(F)(F)F)nn1-c1ncccc1Cl [Compound 500]
% FF (percentage of leaf feeding) [3, 7]: 80%
% FF (percentage of leaf feeding) [3, 8]: 80%
% FF (percentage of leaf feeding) [3, 9]: 30%
% FF (percentage of leaf feeding) [3, 10]: 60%
% FF (percentage of leaf feeding) [3, 11]: 60%
% FF (percentage of leaf feeding) [3, 12]: 30%

Cc1cc(Br)cc(C(=O)NC(C)C)c1NC(=O)c1cc(Br)nn1-c1ncccc1Cl [Compound 520]
protection of squares and bolls [2]: excellent protection of squares and boils including no or minimal sepal damage

Cc1cc(Cl)cc(C(=O)NC(C)C)c1NC(=O)c1cc(Br)nn1-c1ncccc1Cl [Compound 530]
% FF (percentage of leaf feeding) [3, 7]: 80%
% FF (percentage of leaf feeding) [3, 8]: 50%
% FF (percentage of leaf feeding) [3, 9]: 5%
% FF (percentage of leaf feeding) [3, 10]: 50%
% FF (percentage of leaf feeding) [3, 11]: 20%
% FF (percentage of leaf feeding) [3, 12]: 5%

CNC(=O)c1cc(Cl)cc(C)c1NC(=O)c1cc(Br)nn1-c1ncccc1Cl [Compound 531]
Average of Killed Cockroaches ([4]; peanut butter bait 400 ppm, 1 DAT): 3.8
Average of Killed Cockroaches ([4]; peanut butter bait 400 ppm, 2 DAT): 5.8
Average of Killed Cockroaches ([4]; peanut butter bait 400 ppm, 3 DAT): 6.3
Average of Killed Cockroaches ([4]; peanut butter bait 400 ppm, 5 DAT): 7
Average of Killed Cockroaches ([4]; peanut butter bait 400 ppm, 7 DAT): 7
Average of Killed Cockroaches ([4]; peanut butter bait 2000 ppm, 1 DAT): 6.3
Average of Killed Cockroaches ([4]; peanut butter bait 2000 ppm, 2 DAT): 8
Average of Killed Cockroaches ([4]; peanut butter bait 2000 ppm, 3 DAT): 8.8
Average of Killed Cockroaches ([4]; peanut butter bait 2000 ppm, 5 DAT): 9
Average of Killed Cockroaches ([4]; peanut butter bait 2000 ppm, 7 DAT): 9
Average of Killed Cockroaches ([4]; peanut butter bait 10000 ppm, 1 DAT): 9.5
Average of Killed Cockroaches ([4]; peanut butter bait 10000 ppm, 2 DAT): 9.5
Average of Killed Cockroaches ([4]; peanut butter bait 10000 ppm, 3 DAT): 9.5
Average of Killed Cockroaches ([4]; peanut butter bait 10000 ppm, 5 DAT): 9.5
Average of Killed Cockroaches ([4]; peanut butter bait 10000 ppm, 7 DAT): 9.5
% FF (percentage of leaf feeding) [3, 7]: 60%
% FF (percentage of leaf feeding) [3, 8]: 80%
% FF (percentage of leaf feeding) [3, 9]: 10%
% FF (percentage of leaf feeding) [3, 10]: 40%
% FF (percentage of leaf feeding) [3, 11]: 40%
% FF (percentage of leaf feeding) [3, 12]: 10%
Average of Killed Fire Ants ([5]; granular bait 400 ppm, 1 DAT): 0.5
Average of Killed Fire Ants ([5]; granular bait 400 ppm, 3 DAT): 1.3
Average of Killed Fire Ants ([5]; granular bait 400 ppm, 7 DAT): 40.5
Average of Killed Fire Ants ([5]; granular bait 400 ppm, 10 DAT): 50
Average of Killed Fire Ants ([5]; granular bait 400 ppm, 14 DAT): 50
Average of Killed Fire Ants ([5]; granular bait 2,000 ppm, 1 DAT): 1
Average of Killed Fire Ants ([5]; granular bait 2,000 ppm, 3 DAT): 2
Average of Killed Fire Ants ([5]; granular bait 2,000 ppm, 7 DAT): 43
Average of Killed Fire Ants ([5]; granular bait 2,000 ppm, 10 DAT): 49.8
Average of Killed Fire Ants ([5]; granular bait 2,000 ppm, 14 DAT): 50
Average of Killed Fire Ants ([5]; granular bait 10,000 ppm, 1 DAT): 0
Average of Killed Fire Ants ([5]; granular bait 10,000 ppm, 3 DAT): 2.3
Average of Killed Fire Ants ([5]; granular bait 10,000 ppm, 7 DAT): 42.8
Average of Killed Fire Ants ([5]; granular bait 10,000 ppm, 10 DAT): 50
Average of Killed Fire Ants ([5]; granular bait 10,000 ppm, 14 DAT): 50

CNC(=O)c1cc(Br)cc(C)c1NC(=O)c1cc(C(F)(F)F)nn1-c1ncccc1Cl [Compound 542]
mortality [6]: at least 90%

Cc1cc(Cl)cc(C(=O)NC(C)C)c1NC(=O)c1cc(Cl)nn1-c1ncccc1Cl [Compound 543]
% FF (percentage of leaf feeding) [3, 7]: 30%
% FF (percentage of leaf feeding) [3, 8]: 30%
% FF (percentage of leaf feeding) [3, 9]: 5%
% FF (percentage of leaf feeding) [3, 10]: 20%
% FF (percentage of leaf feeding) [3, 11]: 20%
% FF (percentage of leaf feeding) [3, 12]: 5%

Source: patent US7696233B2, “Method for controlling particular insect pests by applying anthranilamide compounds” (E. I. du Pont de Nemours and Company, priority 2001, dated 2010)
